Assays:
Rattus norvegicus [1] = experiment: Reduction in urinary glucose excretion in overnight fasted Sprague-Dawley rat assessed as urinary glucose concentration per 200 g of body weight per 24 hours at 10 /kg, po; assay type: functional
Rattus norvegicus [2] = experiment: Reduction in urinary glucose excretion in overnight fasted Sprague-Dawley rat assessed as urinary glucose concentration per 200 g of body weight per 24 hours at 1 mg/kg, po; assay type: functional
Rattus norvegicus [3] = experiment: Reduction in urinary glucose excretion in overnight fasted Sprague-Dawley rat assessed as urinary glucose concentration per 200 g of body weight per 24 hours at 3 mg/kg, po; assay type: functional
[4] = Oral bioavailability in Sprague-Dawley rat at 10 mg/kg after 15 to 240 mins by LC-MS/MS method; assay type: ADME, organism-based; settings: in vivo
[5] = Oral bioavailability in Sprague-Dawley rat at 10 mg/kg after 15 to 240 mins by HPLC method; assay type: ADME, organism-based; settings: in vivo
[6] = Toxicity in ICR mouse assessed as induction of mouse mortality by measuring death incidence at 2000 mg/kg, po measured up to 24 hrs post dose; assay type: organism-based; settings: in vivo

| SMILES | bioavailability [4] [%] | bioavailability [5] [%] | Activity (Rattus norvegicus [1]) [mg] | Activity (Rattus norvegicus [2]) [mg] | Activity (Rattus norvegicus [3]) [mg] | Activity [6] |
| --- | --- | --- | --- | --- | --- | --- |
| Cc1[nH]nc(O[C@@H]2O[C@H](CO)[C@@H](O)[C@H](O)[C@H]2O)c1Cc1ccc(C(C)C)cc1 | – | 15 | – | – | – | – |
| CSc1ccc(Cc2c(O[C@@H]3O[C@H](CO)[C@@H](O)[C@H](O)[C@H]3O)n[nH]c2C(F)(F)F)cc1 | – | 11 | – | – | – | Non-Toxic |
| Cc1[nH]nc(O[C@@H]2O[C@H](CO)[C@@H](O)[C@H](O)[C@H]2O)c1Cc1ccc(OC(C)C)cc1 | – | 0 | – | – | – | – |

More lines, main results first:

| bioavailability [4] [%] | bioavailability [5] [%] | SMILES | Activity (Rattus norvegicus [1]) [mg] | Activity (Rattus norvegicus [2]) [mg] | Activity (Rattus norvegicus [3]) [mg] | Activity [6] |
| --- | --- | --- | --- | --- | --- | --- |
| 27 | – | CCOC(=O)OC[C@H]1O[C@@H](Oc2nn(C(C)C)c(C)c2Cc2ccc(OC(C)C)cc2)[C@H](O)[C@@H](O)[C@@H]1O [REMOGLIFLOZIN ETABONATE] | 127.5 | 1.6 | 28.3 | – |
| 32 | – | Cc1c(Cc2ccc(OC(C)C)cc2)c(O[C@@H]2O[C@H](COC(=O)OCC(C)C)[C@@H](O)[C@H](O)[C@H]2O)nn1C(C)C | – | – | – | – |
| 27 | – | COC(=O)OC[C@H]1O[C@@H](Oc2nn(C(C)C)c(C)c2Cc2ccc(OC(C)C)cc2)[C@H](O)[C@@H](O)[C@@H]1O | 167.3 | 1.7 | 36.8 | – |

Source: ChEMBL document CHEMBL3880397, “Glucopyranosyloxypyrazole derivatives and use thereof in medicines” (2004)
